Measurements published in patent publication US5756092A, “Use, in a composition, as cyclooxygenase activator and/or stabilizer, of at least one pyrimidine derivative sustituted at the 6th position and a cyclooxygenase substrate” (SocieteL'Oreal S.A., priority 1995, dated 1998).
Values belong to the molecule of their own block, whether it stands above or below them.

How the values were obtained:
[1] = target: T1, prostaglandin-endoperoxide synthase (PGHS) (Ovis aries, UniProt P05979); experiment: Measurement of the activating and/or stabilizing power at a given concentration (oxygen consumption, Clark electrode); type: biochemical, sheep; settings: 0.5 mM; 37° C.; initial rate; % relative to control
T1 construct: isolated from sheep seminal gland; purchased Cayman Chemical 60100; host or cells: sheep seminal gland
T1 sequence (P05979 25-600): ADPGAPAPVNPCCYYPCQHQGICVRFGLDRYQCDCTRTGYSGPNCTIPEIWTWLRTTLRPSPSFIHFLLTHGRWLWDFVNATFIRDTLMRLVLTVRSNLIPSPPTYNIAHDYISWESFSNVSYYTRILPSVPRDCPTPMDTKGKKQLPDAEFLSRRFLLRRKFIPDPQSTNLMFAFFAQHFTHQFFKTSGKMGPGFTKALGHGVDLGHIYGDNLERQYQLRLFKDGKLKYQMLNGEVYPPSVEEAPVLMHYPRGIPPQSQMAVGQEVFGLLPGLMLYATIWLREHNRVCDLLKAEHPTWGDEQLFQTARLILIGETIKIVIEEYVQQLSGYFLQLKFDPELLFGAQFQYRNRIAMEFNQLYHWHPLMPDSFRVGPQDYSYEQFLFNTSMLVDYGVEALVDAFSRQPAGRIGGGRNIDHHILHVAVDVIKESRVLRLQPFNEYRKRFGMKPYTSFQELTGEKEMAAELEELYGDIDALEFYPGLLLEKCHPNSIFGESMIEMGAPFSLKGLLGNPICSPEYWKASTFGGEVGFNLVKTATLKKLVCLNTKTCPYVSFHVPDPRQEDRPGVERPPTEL
From the text: As indicated above, the enzymatic activity of a cyclooxygenase is indicated by a consumption of oxygen. It is therefore possible to monitor the course of the reaction in progress by measuring the consumption of oxygen in the reaction medium and thus to evaluate the activity of the enzyme by measuring the consumption of oxygen.
At time T=0 of the process, a buffered solution containing a cyclooxygenase is introduced into a measuring tank and then the whole is allowed to stabilize for at least one minute.
At time T=1 minute, an appropriate quantity of enzyme substrate is added and the oxygen consumption of the reaction is recorded.
This recording makes it possible to deduce the initial rate of the reaction and the period during which the initial rate of the reaction is maintained.
When a substance potentially having an activity on the cyclooxygenase is tested, the variation of the slope in a positive or negative direction relative to the results obtained with the enzyme alone reflects either the activation or the inhibition of the activity of the enzyme.
Measurement of the activating and/or stabilizing power of pyrimidine derivatives substituted at the 6th position, at a given concentration.
The quantity of oxygen necessary for the oxidation of arachidonic acid is measured by the cyclooxygenase activity of prostaglandin-endoperoxide synthase, in the presence or absence of the derivative to be tested.
The measurements of the consumption of oxygen are performed with a Clark electrode connected to a YSI 5300 oxygen meter of the Yellow Spring Instruments trademark.
These measurements are performed in an open chamber, with constant stirring, at a temperature of 37° C.
If a graph recorder is used, the measurement of the oxygen consumption takes the form of a curve whose maximum slope makes it possible to deduce the initial rate of the reaction, and from which it is possible to calculate the period during which the initial rate of the reaction is maintained.
The measurement of the activity of the derivatives to be tested is performed under the same conditions, by adding, to the reaction medium, the derivative to be tested. It is the variation of the slope and the variation of the period during which the maximum rate is maintained which make it possible to evaluate the activity of the derivative to be tested towards cyclooxygenase.
A solution of 0.1M TRIS and 5 mM EDTA at pH=8.00 (TE solution) is prepared.
The substrate is prepared in the form of a stock solution of potassium arachidonate according to the manufacturer's procedure (Interchim, France).
The solution thus obtained has an arachidonic acid titre of 46 mM. It can be stored at 4° C. for 24 hours.
The derivatives to be tested are prepared in the form of a stock solution with a titre of 5 mM in a water/alcohol mixture (80/20) and tested with the same batch of enzyme.
At t=0, there are introduced into the measuring chamber 380 μl of TEA buffer preheated to 37° C. that are allowed to equilibrate for at least one minute.
At t=1, 300 units of enzyme (PGHS) are introduced.
The recording is initiated and the whole is again allowed to stabilize for one minute. The recording obtained gives the base level of the reaction.
After an additional minute, 10 μl of substrate are introduced and the consumption of oxygen is recorded for 2 to 3 minutes.
The initial rate of the reaction and the period during which this rate is maintained are thus determined.
The experimental conditions are identical to those above, except that the TEA buffer preheated to 37° C. is replaced by an identical buffer containing the derivative to be tested at a concentration of 0.5 mM.

[2] = test system: lipoxygenase; settings: literature (Bedford et al., 1983); cited from earlier work
[3] = test system: cyclooxygenase; settings: literature; cited from earlier work
[4] = target: T2, prostaglandin-endoperoxide synthase (Ovis aries, UniProt P05979); experiment: Calculation of the 50% activating concentration (AC 50) for the activation of prostaglandin-endoperoxide synthase; type: biochemical, sheep
T2 construct: isolated from sheep seminal gland
T2 sequence (P05979 25-600): T1 sequence (P05979 25-600)
Procedure: Calculation of the 50% activating concentration (AC 50) of 2,4-diamino-6-piperidinopyrimidine 3-oxide for the activation of prostaglandin-endoperoxide synthase. 2,4-diamino-6-piperidinopyrimidine 3-oxide Activation
By a statistical calculation (log-linear regression, the correlation coefficient being 0.98 and the significance of the binding less than or equal to 0.01), an AC 50 is found for 40 μM for 2,4-diamino-6-piperidinopyrimidine 3-oxide.

[5] = U.S. Pat. No. 4,596,812; cited from earlier work
[6] = test system: hair growth; settings: U.S. Pat. No. 4,596,812; cited from earlier work

activation at 500 µM [1]: 24%
Structure (SMILES): Cc1nc(N2CCCCC2)cc(N)[n+]1[O-] [2-methyl-4-amino-6-piperidinopyrimidine 3-oxide]

activation at 500 µM [1]: 173%
Structure (SMILES): CCCNc1cc(N2CCCCC2)nc(N)[n+]1[O-] [2-amino-4-propylamino-6-piperidinopyrimidine 3-oxide]

Structure (SMILES): COc1ccc2c(c1)c(CC(=O)O)c(C)n2C(=O)c1ccc(Cl)cc1 [Indomethacin, 1-(4-Chlorobenzoyl)-5-methoxy-2-methyl-1H-indole-3-acetic acid]
activation at 500 µM [1]: -100%

activation at 500 µM [1]: -14%
Structure (SMILES): Nc1cc(N2CCCCC2)nc(N)n1 [2,4-diamino-6-piperidinopyrimidine]

Structure (SMILES): O=C1C(O)=C(O)C(=O)c2cc(Cl)ccc21 [6-chloro-2,3-dihydroxy-1,4-naphthoquinone]
effect on lipoxygenase [2]: lipoxygenase inhibitor
effect on cyclooxygenase activity [3]: cyclooxygenase stimulating agent

activation at 500 µM [1]: 13%
Structure (SMILES): CCCCOc1cc(N)[n+]([O-])c(N)n1 [2,4-diamino-6-butyloxypyrimidine 3-oxide]

activation at 500 µM [1]: 171%
Structure (SMILES): CCCNc1cc(N(C)C)nc(NCCC)[n+]1[O-] [2,4-dipropylamino-6-dimethylaminopyrimidine 3-oxide]

activation at 15.6 µM ([4]; 15.6 μM, read-out: Activation (% of control)): 23%
activation at 62.5 µM ([4]; 62.5 μM, read-out: Activation (% of control)): 61%
activation at 125 µM ([4]; 125 μM, read-out: Activation (% of control)): 90%
activation at 250 µM ([4]; 250 μM, read-out: Activation (% of control)): 102%
activation at 500 µM ([4]; 500 μM, read-out: Activation (% of control)): 146%
activation at 1000 µM ([4]; 1000 μM, read-out: Activation (% of control)): 181%
AC50 ([4]; log-linear regression, correlation coefficient 0.98): 40 µM
activation at 500 µM [1]: 58%
Structure (SMILES): Nc1cc(N2CCCCC2)nc(N)[n+]1[O-] [2,4-diamino-6-piperidinopyrimidine 3-oxide]
antihypertensive effects [5]: antihypertensive effects
capacity to promote hair growth [6]: capacity to promote hair growth

activation at 500 µM [1]: 117%
Structure (SMILES): CCCNc1cc(N(C)C)nc(N)[n+]1[O-] [2-amino-4-propylamino-6-dimethylaminopyrimidine 3-oxide]
